Legend:
[1] = target: T1, high-conductance calcium-activated potassium (maxi-K) channels (Homo sapiens, UniProt Q12791); experiment: Patch clamp recordings of maxi-K channel currents in excised inside-out membrane patches; type: biochemical; conditions: from reduction in peak current, 10 nM compound on internal side of membrane patch, held at -80 mV, steps typically to +50 mV
T1 construct: expressed in transfected cells; host or cells: CHO cells (α-subunit alone) and HEK293 cells (α- and β-subunits)
T1 sequence (Q12791 whole entry): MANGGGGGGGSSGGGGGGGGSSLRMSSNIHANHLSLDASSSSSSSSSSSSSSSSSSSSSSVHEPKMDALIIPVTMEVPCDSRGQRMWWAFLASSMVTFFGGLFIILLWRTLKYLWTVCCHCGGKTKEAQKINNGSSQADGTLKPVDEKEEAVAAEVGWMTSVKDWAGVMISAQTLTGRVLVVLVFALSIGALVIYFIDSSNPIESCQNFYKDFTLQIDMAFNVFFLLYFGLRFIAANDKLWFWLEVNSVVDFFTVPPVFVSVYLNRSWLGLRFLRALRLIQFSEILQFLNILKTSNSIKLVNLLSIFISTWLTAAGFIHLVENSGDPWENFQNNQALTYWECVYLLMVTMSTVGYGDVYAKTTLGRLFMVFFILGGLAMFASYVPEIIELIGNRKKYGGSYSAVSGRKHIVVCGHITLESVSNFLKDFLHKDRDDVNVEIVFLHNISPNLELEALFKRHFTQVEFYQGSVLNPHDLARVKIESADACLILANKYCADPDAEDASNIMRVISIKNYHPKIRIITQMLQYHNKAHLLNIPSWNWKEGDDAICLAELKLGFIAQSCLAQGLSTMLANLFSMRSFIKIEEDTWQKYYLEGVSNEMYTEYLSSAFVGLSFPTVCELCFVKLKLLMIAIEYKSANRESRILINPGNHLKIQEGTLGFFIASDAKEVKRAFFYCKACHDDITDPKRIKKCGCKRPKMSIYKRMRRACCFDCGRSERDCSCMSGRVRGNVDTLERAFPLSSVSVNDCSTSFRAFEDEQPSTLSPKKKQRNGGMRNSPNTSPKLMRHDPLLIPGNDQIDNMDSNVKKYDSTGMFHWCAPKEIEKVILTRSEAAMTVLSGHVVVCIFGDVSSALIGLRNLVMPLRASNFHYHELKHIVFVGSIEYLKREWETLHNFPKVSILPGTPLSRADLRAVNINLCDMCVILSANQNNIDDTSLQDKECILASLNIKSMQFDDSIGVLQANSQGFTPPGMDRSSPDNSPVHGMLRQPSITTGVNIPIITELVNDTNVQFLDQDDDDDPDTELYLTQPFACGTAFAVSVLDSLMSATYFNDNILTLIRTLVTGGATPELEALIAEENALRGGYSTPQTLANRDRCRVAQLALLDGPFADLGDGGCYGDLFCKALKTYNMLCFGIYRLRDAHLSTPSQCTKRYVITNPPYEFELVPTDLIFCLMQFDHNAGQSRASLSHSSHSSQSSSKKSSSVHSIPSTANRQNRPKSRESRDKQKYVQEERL
Source text: Patch clamp recordings of currents flowing through high-conductance calcium-activated potassium (maxi-K) channels were made from membrane patches excised from CHO cells constitutively expressing the α-subunit of the maxi-K channel and from HEK293 cells constitutively expressing both α- and β-subunits using conventional techniques (Hamill et al., 1981, Pflügers Archiv. 391, 85-100) at room temperature. Glass capillary tubing (Garner #7052) was pulled in two stages to yield micropipettes with tip diameters of approximately 1-2 microns. Pipettes were typically filled with solutions containing (mM): 150 KCl, 10 Hepes (4-(2-hydroxyethyl)-1-piperazine […]), 1 MgCl2, 0.01 CaCl2, and adjusted to pH 7.20 with 3.7 mM KOH. After forming a high resistance ([…]) seal between the plasma membrane and the pipette, the pipette was withdrawn from the cell, forming an excised inside-out membrane patch. The patch was excised into a bath solution containing (mM): 150 KCl, 10 Hepes, 5 EGTA (ethylene glycol bis(β-aminoethyl ether)-N,N,N′,N′-tetraacetic acid), sufficient Ca to yield a free Ca concentration of 1-5 μM, and the pH was adjusted to 7.2 with KOH. For example, 4.193 mM Ca was added to give a free concentration of 1 μM at 22° C. An EPC9 amplifier (HEKA Elektronic, Lambrect, Germany) was used to control the voltage and to measure the currents flowing across the membrane patch. The input to the headstage was connected to the pipette solution with a Ag/AgCl wire, and the amplifier ground was connected to the bath solution with a Ag/AgCl wire covered with a tube filled with agar dissolved in 0.2 M KCl. […]
The effects of the compounds of the present invention on maxi-K channels was examined in excised inside-out membrane patches. […] The fraction of channels blocked in each experiment was calculated from the reduction in peak current caused by application of 10 nM of specified compound to the internal side of the membrane patch. […]

Mice (CD-1) = experiment: Tremorgen assay, mouse model; type: in vivo; conditions: CD-1 mice; for Tremors: intraperitoneal
Experimental: Tremorgen Assay A mouse model was developed to evaluate the tremorgen potential of the instance compounds. Mice (CD-1) were injected intraperitoneally at 5 mg/Kg with each compound and observed by investigators for 1 hour for any signs of tremors as well as other behaviors not seen in control mice.
A known tremorgen, Aflatrem, consistently produces tremors in injected mice within 15 minutes at 1 and 5 mg/Kg.

Molecule	FRACTION BLOCKED (10 nM) [1]	Tremors (Mice (CD-1); 5 mg/Kg, observed for 1 hour)	time to tremors after injection (Mice (CD-1); 1 and 5 mg/Kg)	Tremors (Mice (CD-1); 1 and 5 mg/Kg)
CC(C)=CCc1cccc2[nH]c3c(c12)C[C@@H]1CC[C@@]2(O)C45OC4C4OC(C6OC6(C)C)OC(C)(C)C4OC5=CC[C@]2(C)[C@@]31C (some centres unmarked) [Compound III]	0.99-1	None	–	–
Aflatrem [reference compound]	–	–	≤ 15 min	Tremors
CC(C)=CC1OC2C(OC3=CC[C@]4(C)[C@@]5(C)c6[nH]c7ccccc7c6C[C@@H]5CC[C@@]4(O)C34OC24)C(C)(C)O1 (some centres unmarked) [Compound II]	0.99-1	None	–	–
CC1(C)OC1Cc1cccc2[nH]c3c(c12)C[C@@H]1CC[C@@]2(O)C45OC4C4OC(C6OC6(C)C)OC(C)(C)C4OC5=CC[C@]2(C)[C@@]31C (some centres unmarked) [Compound I]	0.9	None	–	–
